The values below come from patent US20240009175A9, “TETRAZOLE DERIVATIVES” (Merck Patent GmbH, priority 2020, published 2024).

For data set [1], the target named is human rec ACSS2 (Homo sapiens (Human), UniProt Q9NR19). The data set can be described thus: Biochemical activity ACSS2 assay (AMP-Glo). The note with it: human recombinant ACSS2, AMP-Glo, 180 min at 37° C. The source says:
Biochemical Activity ACSS2 Assay (IC50 ACSS2 Biochemical)
The biochemical activity assay for ACSS2 is based on the detection of released AMP by AMP-Glo™ Assay kit (Promega, Madison). The assay is run in three steps: the enzymatic reaction in which human rec ACSS2 activates acetate with ATP and Coenzyme A as cosubstrates to acetyl-CoA thereby releasing AMP and the detection reaction of AMP by AMP Glo assay in which after the destruction of the residual ATP with AMP Glo reagent 1 produced AMP is converted to ATP that is measured in a luciferase assay system (detection reagent). The ACSS2 activity correlates with the detected luminescence signal.
The assay was performed in Perkin Elmer 384 well white Proxiplates in a total volume of 8 μl.
1 nM (fc)C-term myc tagged ACSS2 (human, recombinant, Origene, Rockville, US) and a mixture of 100 μM (fc) ATP, 100 μM (fc) Coenzyme A and 500 μM (fc) sodium acetate were incubated in a total volume of 5 μl (50 mM Hepes, 1 mM Mg-chloride, 150 mM NaCl, 1 mM DTT, 0.01% (w/v) BSA, 0.3% DMSO, pH 7.5) in the absence or presence of the test compound (10 dilution concentrations, start conc 30 μM) for 180 min at 37° C. The reaction was stopped and residual ATP destroyed by the addition of 1 μl AMP Glo reagent solution (Promega, Madison, US). After 1h incubation at room temperature 2 μl of AMP Glo detection reagent was added and the assay was incubated for 0.75 hr at room temperature. The luminescence signal was measured with an Envision multimode reader (Perkin Elmer LAS Germany GmbH) at 700 nm in luminescence mode. The full value used was the inhibitor-free reaction. The pharmacological zero value was generated by addition of ACSS2 inhibitor (Ac-CoA Synthase Inhibitor—CAS 508186-14-9-Calbiochem) in a final concentration of 5 μM. The inhibitory values (IC50) were determined using the program Assay Analyzer® from GeneData.

In data set [2] the target is ACSS2 (Homo sapiens (Human), UniProt Q9NR19). The data set can be described thus: Cellular assay of 14C acetate incorporation into histones (IC50 ACSS2 cellular histone). In kind it is cell-based. The following applies: HCT-15 cells. The source says: Cellular Assay of ^14C Acetate Incorporation into Histones (IC50 ACSS2 Cellular Histone)
Chain of ACSS2 (Q9NR19 whole entry): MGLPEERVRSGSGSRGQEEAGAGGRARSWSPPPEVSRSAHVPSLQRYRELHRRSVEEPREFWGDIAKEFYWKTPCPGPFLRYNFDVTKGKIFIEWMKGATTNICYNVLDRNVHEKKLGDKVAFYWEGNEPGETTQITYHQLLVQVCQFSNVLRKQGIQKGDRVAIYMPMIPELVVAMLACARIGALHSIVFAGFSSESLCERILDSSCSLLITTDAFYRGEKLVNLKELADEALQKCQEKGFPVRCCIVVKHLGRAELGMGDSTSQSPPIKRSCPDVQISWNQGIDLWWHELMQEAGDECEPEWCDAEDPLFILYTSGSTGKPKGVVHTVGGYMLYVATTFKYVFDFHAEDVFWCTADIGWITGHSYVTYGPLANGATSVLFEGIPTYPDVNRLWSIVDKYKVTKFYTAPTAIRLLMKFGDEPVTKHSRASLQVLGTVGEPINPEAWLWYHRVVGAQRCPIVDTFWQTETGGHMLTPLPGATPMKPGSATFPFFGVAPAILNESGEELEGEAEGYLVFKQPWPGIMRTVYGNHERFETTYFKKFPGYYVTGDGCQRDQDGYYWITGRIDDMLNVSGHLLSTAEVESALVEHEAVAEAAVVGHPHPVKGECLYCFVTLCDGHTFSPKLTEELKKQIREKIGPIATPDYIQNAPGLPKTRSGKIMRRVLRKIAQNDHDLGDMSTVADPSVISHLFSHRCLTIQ
This protocol describes a cellular assay capable to quantify endogenous histone acetylation activity in the human HCT-15 cancer cell line following the incorporation of extracellularly administered radiolabeled ^14C acetate with a scintillation based read out on acid extracted histones.
HCT-15 cells are trypsinized, washed and suspended in DMEM culture medium supplemented with penicillin/streptomycin (100 U/mL), sodium pyruvate (1 mM), and 10% FBS
Compounds serial dilutions are prepared in 96-well V-bottom microplate from 10 mM stock solutions in DMSO. From these dilutions 0.5 μl are transferred to a fresh plate including pure DMSO as negative control. The dilutions are prepared such, that the final concentration in the assay is 1/400 of the concentration in the serial dilution. The final DMSO concentration in the assay is 0.25%.
The cell suspension is seeded at densities of 2×10^5 cells per 170 μl into individual wells of a 96 well plate each containing 0.5 μl aliquots of compound serial dilutions and are kept for 1 h in a cell incubator. To each well 30 μL of a mixture containing 0.5 mCi/mL of ^14C-acetate with full medium are added. Then, the wells are incubated for 3 hrs in the cell incubator.
Further steps of the procedure should be conducted on ice or instrumentations precooled to 4° C. Cells are sedimented in the 96-well V-bottom microplate by centrifugation (Eppendorf 5804 R) at 1200 rpm for 5 min. The supernatant is removed and the cells are washed twice with 200 μL of PBS-NaB (5 mM sodium butyrate) buffer by iterative resuspension and centrifugation. Finally, the cells are resuspended in 50 μL of TEB (PBS-NaB+0.5% Triton X-100) and left on ice for 10 minutes. After centrifugation at 2300 rpm for 10 minutes at 4° C. the supernatant is removed, the remaining pellet is suspended in 50 μL of 0.2M HCl and incubated over night at 4° C. After incubation the well plate is shaken for 2 minutes in a MTP plate shaker set to 1200 rpm and then centrifuged at 3700 rpm for 10 mins. The lysate is carefully aspirated (˜43 μL) and transferred into a white MTP plate (Greiner bio-one 65509). 90 μL of Ultima Gold XR scintillation cocktail are added and the plates are sealed with a transparent cover tape before mixing vigorously using plate shaker set to 1200 rpm. Radioactivity from ^14C incorporation in the wells is measured as CPM count in a MicroBeta Trilux luminescence counter.

Data set [3] deals with CHO-K1 cells. Nature of the data set: Micronucleus assay (MNT) in vitro. Type of data set: cell-based. More on the design: key: A: negative, putative negative (micronuclei detected beyond threshold of 60% cyctotoxicity); B: positive. The following applies: 24 hrs treatment, 0.2 μM to 100 μM. The procedure: The in vitro MNT assay is performed in CHO-K1 cells due to their stable and well-characterized karyotype, high sensitivity and suitability for a high content imaging approach. They have a basal spontaneous micronucleus frequency of 3-4%.
24 hrs after plating CHO-K1 cells are treated with test compounds for 24 hrs (in duplicates; fixed concentration ranges from 0.2 μM to 100 μM in 2-fold dilution steps). After a medium change cells are incubated for 24 hrs with Cytochalasin B to block cytokinesis and are then fixed and nuclei/micronuclei visualized with a DNA stain. Images are acquired with the Molecular Devices high content imagers IXU or IXM and are analyzed with the dedicated MetaXpress software micronucleus module. Criteria for scoring of micronuclei (MN) are the following: • diameter of the MN should be less than ⅓ of the main nucleus • MN should be separated from or marginally overlap with main nucleus (=no blebs) • MN should have similar staining as the main nucleus
At least 1000 binucleated cells are evaluated per treatment replicate. Mitomycin C is used as reference stimulator of micronucleus formation. Cytotoxicity is evaluated in parallel and defined by comparing total nuclei count in compound-treated samples to neutral control samples treated with vehicle only (1% DMSO) (100% cytotoxicity means all cells are dead or lost).
A test compound is regarded as POSITIVE if generation of micronuclei and exhibition of less than 60% cytotoxicity at the same concentration can be observed.
Compounds are scored only in the soluble concentration range.
Experimental data of the compounds shown in Table 1 in the MNT assay are shown in Table 2 below and classified in the following groups: […]

Chain of human rec ACSS2 (Q9NR19 whole entry): as above

A word on the IC50: it is the midpoint of a concentration-inhibition curve. In the case of `CCn1c(C(O)(c2ccccn2)c2cccs2)nc2nc(OC)c(-c3nnn[nH]3)cc21` (racemic) [Compound 26, [1-ethyl-5-methoxy-6-(1H-1,2,3,4-tetrazol-5-yl)-1H-imidazo[4,5-b]pyridin-2-yl](pyridin-2-yl)(thiophen-2-yl)methanol], the IC50 was in the range of 10 to 100 nM in data set [1] and 1 to 10 nM in data set [2]. In addition, the MNT entry in data set [3] was “A”.
The corresponding values for `CCn1c(C(O)(c2ccccc2)c2ccsc2)nc2nc(OC)c(-c3nnn[nH]3)cc21` (racemic) [Compound 30, [1-ethyl-5-methoxy-6-(1H-1,2,3,4-tetrazol-5-yl)-1H-imidazo[4,5-b]pyridin-2-yl](phenyl)(thiophen-3-yl)methanol] are 1 to 10 nM, 10 to 100 nM and “A”.
As for `CCn1c(C(O)(c2ccccc2)c2cnn(C)c2)nc2nc(OC)c(-c3nnn[nH]3)cc21` (racemic) [Compound 36, [1-ethyl-5-methoxy-6-(1H-1,2,3,4-tetrazol-5-yl)-1H-imidazo[4,5-b]pyridin-2-yl](1-methyl-1H-pyrazol-4-yl)phenylmethanol], the IC50 in data set [1] was in the range of 10 to 100 nM; in data set [2] it was 100 to 10000 nM. The MNT entry in data set [3] is recorded as “A”.
The corresponding values for `CCn1c(C(O)(c2ccccc2)c2ccccc2C)nc2nc(OC)c(-c3nnn[nH]3)cc21` (racemic) [Compound 42, [1-ethyl-5-methoxy-6-(1H-1,2,3,4-tetrazol-5-yl)-1H-imidazo[4,5-b]pyridin-2-yl](2-methylphenyl)phenylmethanol] are 1 to 10 nM, 1 to 10 nM and “A”.
`CCn1c(C(O)(c2ccccc2)c2ccc(OC(F)F)cc2F)nc2nc(OC)c(-c3nnn[nH]3)cc21` (racemic) [Compound 47, [4-(difluoromethoxy)-2-fluorophenyl][1-ethyl-5-methoxy-6-(1H-1,2,3,4-tetrazol-5-yl)-1H-imidazo[4,5-b]pyridin-2-yl]phenylmethanol]: the IC50 in data set [1] and in data set [2] was 1 to 10 nM throughout. Also, the MNT entry in data set [3] is on record as “A”.
As to `CCn1c(C(O)(c2ccc(OC(F)F)cc2)c2ccccc2F)nc2nc(OC)c(-c3nnn[nH]3)cc21` (racemic) [Compound 52, [4-(difluoromethoxy)phenyl][1-ethyl-5-methoxy-6-(1H-1,2,3,4-tetrazol-5-yl)-1H-imidazo[4,5-b]pyridin-2-yl](2-fluorophenyl)methanol], the IC50 in data set [1] and in data set [2] was 1 to 10 nM each time. Besides, the MNT result in data set [3] is given as “A”.
In the case of `CCc1c(C(O)(c2ccccc2)c2ccccn2)nc2cc(Cl)c(-c3nnn[nH]3)cn12` (single isomer, unassigned) [Compound 8, [7-chloro-3-ethyl-6-(1H-tetrazol-5-yl)imidazo[1,2-a]pyridin-2-yl]-phenyl-(2-pyridyl)methanol], the IC50 in data set [1] lay within 1 to 10 nM; in data set [2] it was 100 to 10000 nM. Further, the MNT result in data set [3] is “A”.
The corresponding values for `CCc1c(C(O)(c2ccccc2)c2ccccn2)nc2cc(OC)c(-c3nnn[nH]3)cn12` (single isomer, unassigned) [Compound 10, [3-Ethyl-7-methoxy-6-(1H-tetrazol-5-yl)-imidazo[1,2-a]pyridin-2-yl]-phenyl-pyridin-2-yl-methanol] are 10 to 100 nM, 100 to 10000 nM and “A”.
On to `CCn1c(C(O)(c2ccccc2)c2nccs2)nc2nc(OC)c(-c3nnn[nH]3)cc21` (single isomer, unassigned) [Compound 33, [1-ethyl-5-methoxy-6-(1H-1,2,3,4-tetrazol-5-yl)-1H-imidazo[4,5-b]pyridin-2-yl](phenyl)(1,3-thiazol-2-yl)methanol], for which the IC50 in data set [1] and in data set [2] was 10 to 100 nM each time. Besides, the MNT entry in data set [3] is reported as “A”.
On to `CCc1c(C(O)(c2ccccc2F)c2ccccc2F)nn2cc(Cl)c(-c3nnn[nH]3)cc12` [Compound 20, [6-Chloro-3-ethyl-5-(1H-tetrazol-5-yl)-pyrazolo[1,5-a]pyridin-2-yl]-bis-(2-fluoro-phenyl)-methanol], for which the IC50 in data set [1] fell in the range of 1 to 10 nM; in data set [2], 10 to 100 nM. Also, in data set [3], the MNT result is “A”.
The corresponding values for `CCc1c(C(O)(c2ccccc2)c2ccccc2)nn2cc(F)c(-c3nnn[nH]3)cc12` [Compound 23, [3-Ethyl-6-fluoro-5-(1H-tetrazol-5-yl)-pyrazolo[1,5-a]pyridin-2-yl]-diphenyl-methanol] are 10 to 100 nM, 10 to 100 nM and “A”.
The matching figures for `CCn1c(C(O)(c2ccccc2)c2cccnn2)nc2nc(OC)c(-c3nnn[nH]3)cc21` (stereo not drawn) [Compound 27, [1-ethyl-5-methoxy-6-(1H-1,2,3,4-tetrazol-5-yl)-1H-imidazo[4,5-b]pyridin-2-yl](phenyl)(pyridazin-3-yl)methanol]: 1 to 10 nM, 1 to 10 nM and “A”.
In the case of `CCn1c(C(O)(c2ccsc2)c2ccsc2)nc2nc(OC)c(-c3nnn[nH]3)cc21` [Compound 29, [1-ethyl-5-methoxy-6-(1H-1,2,3,4-tetrazol-5-yl)-1H-imidazo[4,5-b]pyridin-2-yl]bis(thiophen-3-yl)methanol], the IC50 lay in the range of 1 to 10 nM in data set [1] and 10 to 100 nM in data set [2]. In addition, the MNT entry in data set [3] is listed as “A”.
Turning to `CCn1c(C(O)(c2ccccc2F)c2ccccc2F)nc2nc(F)c(-c3nnn[nH]3)cc21` [Compound 46, [1-ethyl-5-fluoro-6-(1H-1,2,3,4-tetrazol-5-yl)-1H-imidazo[4,5-b]pyridin-2-yl]bis(2-fluorophenyl)methanol], the IC50 in data set [1] and in data set [2] was 10 to 100 nM in each case. Also, in data set [3], the MNT result is given as “A”.
For `Cc1nc2nc(C(O)(c3ccccc3F)c3ccccc3F)n(C)c2cc1-c1nnn[nH]1` [Compound 55, [1,5-dimethy-6-(1H-1,2,3,4-tetrazol-5-yl)-1H-imidazo[4,5-b]pyridin-2-yl]bis(2-fluorophenyl)methanol], the IC50 in data set [1] fell in the range of 0.01 to 1 nM; in data set [2], 10 to 100 nM. Moreover, the MNT entry in data set [3] is on record as “A”.
